The target of one assay is Recombinant HDAC1 (Homo sapiens (Human), UniProt Q13547). In words: HDAC1 inhibition, Fluor de Lys fluorescent enzyme assay. Format: biochemical. The conditions noted are these: 3 hours pre-incubation at room temp; 6 nM enzyme; 16 μM Fluor de Lys substrate; duplicate. Summed up: (§1)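 Enzyme (HDAC1 6 nM, HDAC3/NCor2 1.2 nM final) pre-incubated with compound 3 h at ~22 °C in Tris pH 8 buffer with 0.01% BSA. Reaction run 1 h with 16 μM Fluor de Lys substrate and stopped with TSA-containing developer. Fluorescence read at Ex 360/Em 460; IC50 from an occupancy equation with Hill coefficient, in duplicate.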
Recombinant HDAC1, sequence (Q13547 whole entry): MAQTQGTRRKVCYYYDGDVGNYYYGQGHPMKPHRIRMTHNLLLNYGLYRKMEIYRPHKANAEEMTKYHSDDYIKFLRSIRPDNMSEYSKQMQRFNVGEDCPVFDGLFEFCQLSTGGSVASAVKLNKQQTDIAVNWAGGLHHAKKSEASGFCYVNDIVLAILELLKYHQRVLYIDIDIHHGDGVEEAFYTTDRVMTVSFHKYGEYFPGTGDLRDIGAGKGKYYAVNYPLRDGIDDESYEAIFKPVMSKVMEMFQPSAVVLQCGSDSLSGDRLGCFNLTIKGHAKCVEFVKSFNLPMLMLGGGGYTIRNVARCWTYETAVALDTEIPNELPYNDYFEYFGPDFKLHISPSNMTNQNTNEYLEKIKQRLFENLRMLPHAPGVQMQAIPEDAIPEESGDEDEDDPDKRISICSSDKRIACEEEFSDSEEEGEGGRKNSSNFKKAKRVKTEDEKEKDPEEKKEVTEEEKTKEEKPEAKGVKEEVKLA

The target in another assay is HDAC3/NCor2 (Homo sapiens (Human), UniProt O15379). The assay is described as follows: HDAC3 inhibition, Fluor de Lys fluorescent enzyme assay. It is filed as biochemical. The note with it: 3 hours pre-incubation at room temp; 1.2 nM enzyme; 16 μM Fluor de Lys substrate; duplicate. In outline:
as §1

Each structure is given as a SMILES string.

HDAC3/NCor2, sequence (O15379 whole entry): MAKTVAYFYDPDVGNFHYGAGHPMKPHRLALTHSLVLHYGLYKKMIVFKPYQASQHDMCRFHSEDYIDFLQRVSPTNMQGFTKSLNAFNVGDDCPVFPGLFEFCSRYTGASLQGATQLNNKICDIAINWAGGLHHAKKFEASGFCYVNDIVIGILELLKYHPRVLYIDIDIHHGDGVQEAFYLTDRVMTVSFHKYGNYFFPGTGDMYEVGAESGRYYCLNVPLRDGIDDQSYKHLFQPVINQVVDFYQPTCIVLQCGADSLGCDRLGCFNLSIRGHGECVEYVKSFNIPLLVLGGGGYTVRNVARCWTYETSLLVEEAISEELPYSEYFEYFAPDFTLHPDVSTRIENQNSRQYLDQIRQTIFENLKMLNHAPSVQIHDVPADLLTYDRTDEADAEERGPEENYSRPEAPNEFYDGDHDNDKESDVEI
HDAC3/NCor2, sequence (Q9Y618 395-489 partner): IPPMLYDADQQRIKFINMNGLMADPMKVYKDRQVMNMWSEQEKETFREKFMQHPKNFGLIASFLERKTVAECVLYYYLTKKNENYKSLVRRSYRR

By IC50 is commonly meant the concentration at which inhibition is half-maximal. Turning to `N=S(=O)(c1ccc(C(=O)Nc2cc(-c3ccc(F)cc3)ccc2N)cc1)c1ccc(C(F)(F)F)nc1` (stereo not shown) [Compound 205, N-[2-amino-5-(4-fluorophenyl)phenyl]-4-[[6-(trifluoromethyl)-3-pyridyl]sulfonimidoyl]benzamide], the IC50 on Recombinant HDAC1 is below 100 nM; against HDAC3/NCor2, above 2000 nM.

With `[2H]c1c([2H])c(-c2ccc(N)c(NC(=O)c3ccc(S(C)(=N)=O)cc3)c2)c([2H])c([2H])c1F` (stereo not shown) [Compound 223, N-[2-amino-5-(2,3,5,6-tetradeutero-4-fluoro-phenyl)phenyl]-4-(methylsulfonimidoyl)benzamide], the IC50 was below 100 nM at Recombinant HDAC1 and 500 to 2000 nM against HDAC3/NCor2.

With `N=[S@](=O)(c1ccc(C(=O)Nc2cc(-c3ccc(F)s3)ccc2N)cc1)C1CC1` (single isomer, unassigned) [Compound 131], the IC50 on Recombinant HDAC1 was below 100 nM; against HDAC3/NCor2, 500 to 2000 nM.

For the molecule `C[S@@](=N)(=O)c1ccc(C(=O)Nc2cc(-c3cccs3)ccc2N)cc1` (single isomer, unassigned) [Compound 105], the results for the IC50 on Recombinant HDAC1 and against HDAC3/NCor2 were below 100 nM and 500 to 2000 nM, respectively.

Take `CC(=O)c1ccc(-c2ccc(N)c(NC(=O)c3ccc(S(C)(=N)=O)cc3)c2)s1` (stereo not shown) [Compound 241, N-[5-(5-acetyl-2-thienyl)-2-amino-phenyl]-4-(methylsulfonimidoyl)benzamide]: the IC50 at Recombinant HDAC1 and against HDAC3/NCor2 was above 2000 nM in each case.

Turning to `CS(=N)(=O)c1ccc(C(=O)Nc2cc(-c3ccc(C(N)=O)s3)ccc2N)cc1` (stereo not shown) [Compound 176, 5-[4-amino-3-[[4-(methylsulfonimidoyl)benzoyl]amino]phenyl]thiophene-2-carboxamide], the IC50 at Recombinant HDAC1 and at HDAC3/NCor2 was above 2000 nM throughout.

On to `N=S(=O)(c1ccc(C(=O)Nc2cc(-c3cccs3)ccc2N)cc1)c1ccccn1` (stereo not shown) [Compound 150, N-[2-amino-5-(2-thienyl)phenyl]-4-(2-pyridylsulfonimidoyl)benzamide], for which the results for the IC50 on Recombinant HDAC1 and against HDAC3/NCor2 were below 100 nM and 500 to 2000 nM, respectively.

Take `N=S(=O)(c1ccc(C(=O)Nc2cc(-c3ccc(F)cc3)ccc2N)cc1)c1cnccc1O` (stereo not shown) [Compound 227, N-[2-amino-5-(4-fluorophenyl)phenyl]-4-[(4-hydroxy-3-pyridyl)sulfonimidoyl]benzamide]: the IC50 on Recombinant HDAC1 is below 100 nM; against HDAC3/NCor2, 500 to 2000 nM.

Take `CS(=N)(=O)c1ccc2oc(C(=O)Nc3cc(-c4ccc(F)cc4)ccc3N)cc2c1` (stereo not shown) [Compound 171, N-(4-amino-4′-fluoro-[1,1′-biphenyl]-3-yl)-5-(S-methylsulfonimidoyl)benzofuran-2-carboxamide]: the IC50 on Recombinant HDAC1 is below 100 nM; at HDAC3/NCor2 it was 100 to 500 nM.

As for `CS(=N)(=O)Cc1ccc2sc(C(=O)Nc3cc(-c4ccc(F)cc4)ccc3N)cc2c1` (stereo not shown) [Compound 167, N-[2-amino-5-(4-fluorophenyl)phenyl]-5-[(methylsulfonimidoyl)methyl]benzothiophene-2-carboxamide], the IC50 on Recombinant HDAC1 is below 100 nM; against HDAC3/NCor2 it was 500 to 2000 nM.

Regarding `COCCS(=N)(=O)c1ccc(C(=O)Nc2cc(-c3cccs3)ccc2N)nc1` (stereo not shown) [Compound 121, N-[2-amino-5-(2-thienyl)phenyl]-5-(2-methoxyethylsulfonimidoyl)pyridine-2-carboxamide], the IC50 on Recombinant HDAC1 is below 100 nM; on HDAC3/NCor2 it was 500 to 2000 nM.

Regarding `Nc1ccc(-c2ccc(F)cc2)cc1NC(=O)c1ccc([S@]2(=O)=N[C@@H](c3ccccc3)CC2)cc1` (racemic) [Compound 196, rac-N-(4-amino-4′-fluoro-[1,1′-biphenyl]-3-yl)-4-((1S,3R)-1-oxido-3-phenyl-4,5-dihydro-3H-1λ^6-isothiazol-1-yl)benzamide], the half-inhibitory concentration (IC50) at Recombinant HDAC1 was below 100 nM; on HDAC3/NCor2, above 2000 nM.

`CC(C)(C)OC(=O)N=S(=O)(c1ccc(C(=O)Nc2cc(-c3cccs3)ccc2NC(=O)OC(C)(C)C)cc1)C1CC1` (stereo not shown) [Compound 112, tert-butyl N-[[4-[[2-(tert-butoxycarbonylamino)-5-(2-thienyl)phenyl]carbamoyl]phenyl]-cyclopropyl-oxo-sulfanylidene]carbamate]: the IC50 on Recombinant HDAC1 and against HDAC3/NCor2 was above 2000 nM in each case.

For `N=S(=O)(c1ccc(C(=O)Nc2cc(-c3ccc(F)cc3)ccc2N)cc1)c1cncc(CO)c1` (stereo not shown) [Compound 250, N-(4-amino-4′-fluoro-[1,1′-biphenyl]-3-yl)-4-(5-(hydroxymethyl)pyridine-3-sulfonimidoyl)benzamide], the values for the IC50 at Recombinant HDAC1 and at HDAC3/NCor2 were below 100 nM and 500 to 2000 nM, respectively.

`N=S(=O)(c1ccc(C(=O)Nc2cc(-c3ccc(F)cc3)ccc2N)cc1)c1ccc(CO)nc1` (stereo not shown) [Compound 208]: the IC50 is below 100 nM at Recombinant HDAC1 and 500 to 2000 nM against HDAC3/NCor2.

For the molecule `C[S@@](=N)(=O)c1ccc(C(=O)Nc2cc(-c3ccc(F)s3)ccc2N)cc1` [Compound 144, (R)—N-[2-amino-5-(5-fluoro-2-thienyl)phenyl]-4-(methylsulfonimidoyl)benzamide], the figures for the IC50 on Recombinant HDAC1 and at HDAC3/NCor2 were below 100 nM and 500 to 2000 nM, respectively.

`N=S(=O)(c1ccc(C(=O)Nc2cc(-c3ccc(F)cc3)ccc2N)cc1)c1cncc(F)c1` (stereo not shown) [Compound 206, N-(4-amino-4′-fluoro-[1,1′-biphenyl]-3-yl)-4-(5-fluoropyridine-3-sulfonimidoyl)benzamide]: the IC50 was below 100 nM on Recombinant HDAC1 and 500 to 2000 nM against HDAC3/NCor2.

As to `CS(=N)(=O)c1ccc(C(=O)Nc2cc(-c3ccc(F)cc3)ccc2N)cc1` (stereo not shown) [Compound 104, N-[2-amino-5-(4-fluorophenyl)phenyl]-4-(methylsulfonimidoyl)benzamide], the IC50 at Recombinant HDAC1 is below 100 nM; on HDAC3/NCor2 it was 500 to 2000 nM.

For `Cc1cncc(S(=N)(=O)c2ccc(C(=O)Nc3cc(-c4ccc(F)cc4)ccc3N)cc2)c1` (stereo not shown) [Compound 199, N-[2-amino-5-(4-fluorophenyl)phenyl]-4-[(5-methyl-3-pyridyl)sulfonimidoyl]benzamide], the IC50 at Recombinant HDAC1 is below 100 nM; at HDAC3/NCor2, 500 to 2000 nM.

For the molecule `CCN=S(C)(=O)c1ccc(C(=O)Nc2cc(-c3ccc(F)cc3)ccc2N)cn1` (stereo not shown) [Compound 169, N-[2-amino-5-(4-fluorophenyl)phenyl]-6-(N-ethyl-S-methyl-sulfonimidoyl)pyridine-3-carboxamide], the IC50 on Recombinant HDAC1 was below 100 nM; on HDAC3/NCor2, 500 to 2000 nM.

For `COc1ncc(S(=N)(=O)c2ccc(C(=O)Nc3cc(-c4ccc(F)cc4)ccc3N)cc2)[nH]1` (stereo not shown) [Compound 252, N-[2-amino-5-(4-fluorophenyl)phenyl]-4-[(2-methoxy-1H-imidazol-5-yl)sulfonimidoyl]benzamide], the results for the IC50 at Recombinant HDAC1 and at HDAC3/NCor2 were below 100 nM and above 2000 nM, respectively.

As for `N=[S@](=O)(c1ccc(C(=O)Nc2cc(-c3ccc(F)cc3)ccc2N)cc1)C1CC1` (single isomer, unassigned) [Compound 145], the IC50 on Recombinant HDAC1 is below 100 nM; against HDAC3/NCor2 it was 500 to 2000 nM.

Regarding `CS(=N)(=O)c1ccc(C(=O)Nc2cc(-c3cncnc3)ccc2N)cc1` (stereo not shown) [Compound 151, N-(2-amino-5-pyrimidin-5-yl-phenyl)-4-(methylsulfonimidoyl)benzamide], the IC50 at Recombinant HDAC1 and at HDAC3/NCor2 was above 2000 nM each time.

Consider `CS(=N)(=O)c1ccc2oc(C(=O)Nc3cc(-c4ccc(F)cc4)ccc3N)cc2n1` (stereo not shown) [Compound 189, N-[2-amino-5-(4-fluorophenyl)phenyl]-5-(methylsulfonimidoyl)furo[3,2-b]pyridine-2-carboxamide], for which the values for the IC50 on Recombinant HDAC1 and against HDAC3/NCor2 were below 100 nM and 500 to 2000 nM, respectively.

Consider `CS(=N)(=O)c1ccc(C(=O)Nc2cc(-c3ccc(F)cc3F)ccc2N)cc1` (stereo not shown) [Compound 117, N-[2-amino-5-(2,4-difluorophenyl)phenyl]-4-(methylsulfonimidoyl)benzamide], for which the IC50 at Recombinant HDAC1 was below 100 nM; against HDAC3/NCor2 it was above 2000 nM.

As to `N=S(=O)(c1ccc(C(=O)Nc2cc(-c3ccc(F)cc3)ccc2N)cc1)c1cnc(O)nc1` (stereo not shown) [Compound 234, N-[2-amino-5-(4-fluorophenyl)phenyl]-4-[(2-hydroxypyrimidin-5-yl)sulfonimidoyl]benzamide], the results for the IC50 on Recombinant HDAC1 and at HDAC3/NCor2 were below 100 nM and above 2000 nM, respectively.

Regarding `Cc1ccc(S(=N)(=O)c2ccc(C(=O)Nc3cc(-c4ccc(F)cc4)ccc3N)cc2)cn1` (stereo not shown) [Compound 233, N-[2-amino-5-(4-fluorophenyl)phenyl]-4-[(6-methyl-3-pyridyl)sulfonimidoyl]benzamide], the figures for the IC50 on Recombinant HDAC1 and against HDAC3/NCor2 were below 100 nM and 500 to 2000 nM, respectively.

For `C=C(C)c1cncc(S(=N)(=O)c2ccc(C(=O)Nc3cc(-c4ccc(F)cc4)ccc3N)cc2)c1` (stereo not shown) [Compound 225, N-[2-amino-5-(4-fluorophenyl)phenyl]-4-[(5-isopropenyl-3-pyridyl)sulfonimidoyl]benzamide], the IC50 at Recombinant HDAC1 was below 100 nM; against HDAC3/NCor2 it was 500 to 2000 nM.

As for `CS(=N)(=O)Cc1ccc(C(=O)Nc2cc(-c3cccs3)ccc2N)cc1` (stereo not shown) [Compound 128, N-[2-amino-5-(2-thienyl)phenyl]-4-[(methylsulfonimidoyl)methyl]benzamide], the figures for the IC50 on Recombinant HDAC1 and on HDAC3/NCor2 were below 100 nM and 500 to 2000 nM, respectively.

Take `CS(=N)(=O)c1ccc(C(=O)Nc2cc(-c3cccs3)ccc2N)nc1` (stereo not shown) [Compound 113, N-[2-amino-5-(2-thienyl)phenyl]-5-(methylsulfonimidoyl)pyridine-2-carboxamide]: the IC50 on Recombinant HDAC1 was below 100 nM; on HDAC3/NCor2, 500 to 2000 nM.

For the molecule `Cc1ncc(-c2ccc(N)c(NC(=O)c3ccc(S(C)(=N)=O)cc3)c2)s1` (stereo not shown) [Compound 156, N-[2-amino-5-(2-methylthiazol-5-yl)phenyl]-4-(methylsulfonimidoyl)benzamide], the IC50 at Recombinant HDAC1 is 100 to 500 nM; on HDAC3/NCor2, above 2000 nM.

On to `Nc1ccc(-c2ccc(F)cc2)cc1NC(=O)c1ccc([S@@]2(=O)=N[C@@H](c3ccccc3)CC2)cc1` (racemic) [Compound 229, rac-N-(4-amino-4′-fluoro-[1,1′-biphenyl]-3-yl)-4-((1R,3R)-1-oxido-3-phenyl-4,5-dihydro-3H-1λ^6-isothiazol-1-yl)benzamide], for which the IC50 was below 100 nM at Recombinant HDAC1 and above 2000 nM on HDAC3/NCor2.

Source of the values: patent US20250136570A1 (Tango Therapeutics, Inc., priority 2021, published 2025).
